Experimental data: PubChem BioAssay AID330 (DTP/NCI, 2004)
Values joined by “and” are separate entries in the source; they are usually repeats but may differ in a detail not shown here. Equal values may be shown once. Toxic doses and inconclusive results are not listed. The calls were made as follows: active = survival T/C of 150% or more; inactive = T/C below 125% in these data.

Tested on: P388 leukemia ip, CD2F1 mice, survival T/C
Assay: NCI In Vivo Anticancer Drug Screen. Data for tumor model P388 Leukemia (intraperitoneal) in CD2F1 (CDF1) mice
Conditions: endpoint: median survival time, higher = longer survival
Summary of the method: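 Mice carrying the transplanted tumor received test compound or vehicle. Survival was recorded in each group, and the value is the treated-group measurement divided by that of the vehicle-treated control group.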

[1] = dose: 50.0 mg/kg/injection, schedule: Q01DX005 (ip), vehicle: saline with Tween-80
[2] = dose: 100.0 mg/kg/injection, schedule: Q01DX005 (ip), vehicle: saline with Tween-80
[3] = dose: 200.0 mg/kg/injection, schedule: Q01DX005 (ip), vehicle: saline with Tween-80
[4] = dose: 50.0 mg/kg/injection, schedule: Q01DX009 (ip), vehicle: Klucel (hydroxypropylcellulose) (HPC)
[5] = dose: 100.0 mg/kg/injection, schedule: Q01DX009 (ip), vehicle: Klucel (hydroxypropylcellulose) (HPC)
[6] = dose: 200.0 mg/kg/injection, schedule: Q01DX009 (ip), vehicle: Klucel (hydroxypropylcellulose) (HPC)
[7] = dose: 50.0 mg/kg/injection, schedule: Q01DX005 (ip), vehicle: Klucel (hydroxypropylcellulose) (HPC)
[8] = dose: 100.0 mg/kg/injection, schedule: Q01DX005 (ip), vehicle: Klucel (hydroxypropylcellulose) (HPC)
[9] = dose: 200.0 mg/kg/injection, schedule: Q01DX005 (ip), vehicle: Klucel (hydroxypropylcellulose) (HPC)
[10] = dose: 50.0 mg/kg/injection, schedule: Q01DX009 (ip), vehicle: saline with Tween-80
[11] = dose: 100.0 mg/kg/injection, schedule: Q01DX009 (ip), vehicle: saline with Tween-80
[12] = dose: 200.0 mg/kg/injection, schedule: Q01DX009 (ip), vehicle: saline with Tween-80
[13] = dose: 400.0 mg/kg/injection, schedule: Q01DX009 (ip), vehicle: saline with Tween-80
[14] = dose: 60.0 mg/kg/injection, schedule: Q01DX005 (ip), vehicle: saline with Tween-80
[15] = dose: 120.0 mg/kg/injection, schedule: Q01DX005 (ip), vehicle: saline with Tween-80
[16] = dose: 240.0 mg/kg/injection, schedule: Q01DX005 (ip), vehicle: saline with Tween-80
[17] = dose: 50.0 mg/kg/injection, schedule: Q01DX009 (ip), vehicle: saline
[18] = dose: 100.0 mg/kg/injection, schedule: Q01DX009 (ip), vehicle: saline
[19] = dose: 60.0 mg/kg/injection, schedule: Q01DX005 (ip), vehicle: Klucel (hydroxypropylcellulose) (HPC)
[20] = dose: 200.0 mg/kg/injection, schedule: Q01DX009 (ip), vehicle: saline

Measured: T/C

CC1=C(/C=C/C(C)=C/C=C/C(C)=C/CO)C(C)(C)CCC1
inactive: [1] 98 % of control | [2] 94 % of control | dose: 100.0 mg/kg/injection, schedule: Q04DX003 (ip), vehicle: saline with Tween-80 100 % of control | [3] 116 % of control | dose: 200.0 mg/kg/injection, schedule: Q04DX003 (ip), vehicle: saline with Tween-80 100 % of control

COc1cc(C(CC(=O)O)CC(=O)O)cc(OC)c1OC
inactive: [1] 93 % of control | [2] 95 % of control | [3] 95 % of control

CSc1cc(C)[o+]c(C)c1
inactive: dose: 25.0 mg/kg/injection, schedule: Q01DX009 (ip), vehicle: Klucel (hydroxypropylcellulose) (HPC) 101 % of control | [4] 113 % of control and 92 % of control | [5] 106 % of control and 107 % of control | [6] 122 % of control

O=C(NC1CCCCC1)C(O)C(O)C(O)C(O)CO (configuration not stated)
inactive: [7] 107 % of control | [8] 107 % of control | [9] 104 % of control

COC(=O)c1nc(=S)[nH]c(C(=O)OC)c1C(=O)c1cccc2ccccc12
inactive: dose: 60.0 mg/kg/injection, schedule: Q01DX005 (ip), vehicle: Klucel + Tween-80 102 % of control | dose: 120.0 mg/kg/injection, schedule: Q01DX005 (ip), vehicle: Klucel + Tween-80 95 % of control | dose: 240.0 mg/kg/injection, schedule: Q01DX005 (ip), vehicle: Klucel + Tween-80 92 % of control

O=NNc1ncc(Br)cc1Br
inactive: dose: 1.56 mg/kg/injection, schedule: Q01DX009 (ip), vehicle: water 100 % of control | dose: 3.12 mg/kg/injection, schedule: Q01DX009 (ip), vehicle: water 99 % of control and 107 % of control | dose: 6.25 mg/kg/injection, schedule: Q01DX009 (ip), vehicle: water 107 % of control and 110 % of control | dose: 12.5 mg/kg/injection, schedule: Q01DX005 (ip), vehicle: water 119 % of control and 122 % of control | dose: 12.5 mg/kg/injection, schedule: Q01DX009 (ip), vehicle: water 122 % of control | dose: 25.0 mg/kg/injection, schedule: Q01DX009 (ip), vehicle: water 122 % of control
active: dose: 50.0 mg/kg/injection, schedule: Q01DX005 (ip), vehicle: water 154 % of control and 165 % of control | dose: 100.0 mg/kg/injection, schedule: Q01DX005 (ip), vehicle: water 175 % of control and 190 % of control and 206 % of control

O=C1Nc2ccccc2S/C1=C\c1cccc(C(F)(F)F)c1
inactive: [10] 94 % of control | [11] 100 % of control | [12] 105 % of control

O=C([S-])N1CCCCC1.O=C([S-])N1CCCCC1.[Ni+2]
inactive: dose: 12.5 mg/kg/injection, schedule: Q01DX009 (ip), vehicle: saline with Tween-80 90 % of control | dose: 25.0 mg/kg/injection, schedule: Q01DX009 (ip), vehicle: saline with Tween-80 100 % of control | [10] 90 % of control

COc1ccc2c(c1)C(Br)CCCC2=O (configuration not stated)
inactive: dose: 400.0 mg/kg/injection, schedule: Q01DX009 (ip), vehicle: distilled water + alcohol 106 % of control

CC(=O)NS(=O)(=O)c1ccc(N/N=C(\C#N)C(N)=O)cc1
inactive: [7] 92 % of control | [8] 100 % of control

O=C(NCCc1nc(-c2nc(C(=O)O)cs2)cs1)c1ccccc1
inactive: [11] 100 % of control | [12] 100 % of control | [13] 90 % of control

O=C(CCC(=O)Nc1cccc([N+](=O)[O-])c1)CC(=O)c1ccc(Cl)cc1
inactive: [14] 96 % of control | [15] 105 % of control | [16] 96 % of control

CCN(CC)CC(C)(C)C(=O)/C=C/c1ccc(Cl)cc1
inactive: dose: 60.0 mg/kg/injection, schedule: Q01DX005 (ip), vehicle: saline 110 % of control | dose: 120.0 mg/kg/injection, schedule: Q01DX005 (ip), vehicle: saline 116 % of control

Clc1nc2cc3c(cc2n2cccc12)oc1ccccc13
inactive: dose: 25.0 mg/kg/injection, schedule: Q01DX005 (ip), vehicle: saline with Tween-80 108 % of control | [1] 110 % of control | [2] 110 % of control | [3] 110 % of control

Cn1ccnc1CC(C)(O)c1ccccc1 (configuration not stated)
inactive: [14] 103 % of control | [15] 104 % of control | [16] 108 % of control

C=CC(=O)OCCCN(CCCC)CCCC
inactive: dose: 25.0 mg/kg/injection, schedule: Q01DX005 (ip), vehicle: Klucel (hydroxypropylcellulose) (HPC) 100 % of control | [7] 95 % of control | [8] 105 % of control | [9] 105 % of control

O=C1N2CCCC2(S)C(=O)N2CCCC12[S-].[Zn] (configuration not stated)
inactive: dose: 12.5 mg/kg/injection, schedule: Q01DX009 (ip), vehicle: saline 95 % of control and 97 % of control | dose: 25.0 mg/kg/injection, schedule: Q01DX009 (ip), vehicle: saline 100 % of control and 90 % of control | [17] 108 % of control and 119 % of control | [18] 124 % of control and 95 % of control

O=C(O)C(O)COc1nsnc1N1CCOCC1 (configuration not stated)
inactive: [4] 107 % of control | [5] 102 % of control | [6] 107 % of control

CCN(CC)Cc1c(O)ccc2c3c(c(=O)oc12)CCCC3
inactive: dose: 8.0 mg/kg/injection, schedule: Q01DX009 (ip), vehicle: Klucel (hydroxypropylcellulose) (HPC) 101 % of control | dose: 16.0 mg/kg/injection, schedule: Q01DX009 (ip), vehicle: Klucel (hydroxypropylcellulose) (HPC) 102 % of control | dose: 32.0 mg/kg/injection, schedule: Q01DX009 (ip), vehicle: Klucel (hydroxypropylcellulose) (HPC) 101 % of control

COc1ccc(-c2ccc(Cc3ccc(-c4ccc(OC)cc4)o3)o2)cc1
inactive: [1] 94 % of control | [2] 91 % of control | [3] 91 % of control

FC(F)(c1nc2ccccc2[nH]1)C(F)(F)C(F)(F)c1nc2ccccc2[nH]1
inactive: [1] 95 % of control | [2] 89 % of control | [3] 88 % of control

COc1cc(/C=C/c2cccs2)oc(=O)c1
inactive: [4] 103 % of control | [5] 103 % of control | [6] 103 % of control

CCCCCCCOCC(=O)OC
inactive: [10] 109 % of control | [11] 108 % of control | [12] 101 % of control

Cc1cc(O)c2c(=O)c(=O)c2c1
inactive: [1] 101 % of control | [2] 103 % of control

CN(C)CCC(=O)c1ccc(C(=O)CCN(C)C)cc1
inactive: dose: 25.0 mg/kg/injection, schedule: Q01DX005 (ip), vehicle: saline 108 % of control | dose: 50.0 mg/kg/injection, schedule: Q01DX005 (ip), vehicle: saline 107 % of control | dose: 100.0 mg/kg/injection, schedule: Q01DX005 (ip), vehicle: saline 107 % of control

CC1=C(C)C(=O)C2=C(OCCCO2)C1=O
inactive: dose: 15.0 mg/kg/injection, schedule: Q01DX005 (ip), vehicle: Klucel (hydroxypropylcellulose) (HPC) 98 % of control | dose: 30.0 mg/kg/injection, schedule: Q01DX005 (ip), vehicle: Klucel (hydroxypropylcellulose) (HPC) 96 % of control | [19] 98 % of control

Cc1cc(OCC(=O)N/N=C/c2ccc(N(CCCl)CCCl)cc2)c2ccc(Cl)cc2n1
inactive: [17] 95 % of control and 97 % of control | [18] 97 % of control | [20] 101 % of control and 87 % of control

CN(C)c1c2ccccc2c(NC=O)c2ccccc12
inactive: [19] 102 % of control | dose: 120.0 mg/kg/injection, schedule: Q01DX005 (ip), vehicle: Klucel (hydroxypropylcellulose) (HPC) 95 % of control | dose: 240.0 mg/kg/injection, schedule: Q01DX005 (ip), vehicle: Klucel (hydroxypropylcellulose) (HPC) 86 % of control

CC(C)C(C)CS(=O)(=O)OCCCCOS(=O)(=O)CC(C)C(C)C (configuration not stated)
inactive: dose: 50.0 mg/kg/injection, schedule: Q01DX005 (ip), vehicle: suspension in saline 103 % of control | dose: 100.0 mg/kg/injection, schedule: Q01DX005 (ip), vehicle: suspension in saline 105 % of control | dose: 200.0 mg/kg/injection, schedule: Q01DX005 (ip), vehicle: suspension in saline 112 % of control

CN(C)CCN1C(=O)c2c(c3cccn3c3c2cnn3-c2ccccc2)C1=O
inactive: [14] 100 % of control | [15] 102 % of control | [16] 100 % of control

O=C(c1ccccc1)c1cnc2ccccc2c1
inactive: [7] 101 % of control | [8] 101 % of control | [9] 104 % of control

CCOC(=O)/C(=C/Nc1ccc(OCc2ccccc2)cc1)NC(=O)c1ccccc1
inactive: [10] 87 % of control | [17] 86 % of control | [11] 86 % of control | [18] 86 % of control | [12] 87 % of control | [20] 88 % of control | [13] 97 % of control | dose: 400.0 mg/kg/injection, schedule: Q01DX009 (ip), vehicle: saline 97 % of control
